Results: patent US20180338980A1, “AROMATIC SULFONAMIDE DERIVATIVES” (BAYER PHARMA AKTIENGESELLSCHAFT, priority 2015, published 2018)

Target: T1, P2X4 (Homo sapiens, UniProt Q99571)
T1 sequence (Q99571 1-388): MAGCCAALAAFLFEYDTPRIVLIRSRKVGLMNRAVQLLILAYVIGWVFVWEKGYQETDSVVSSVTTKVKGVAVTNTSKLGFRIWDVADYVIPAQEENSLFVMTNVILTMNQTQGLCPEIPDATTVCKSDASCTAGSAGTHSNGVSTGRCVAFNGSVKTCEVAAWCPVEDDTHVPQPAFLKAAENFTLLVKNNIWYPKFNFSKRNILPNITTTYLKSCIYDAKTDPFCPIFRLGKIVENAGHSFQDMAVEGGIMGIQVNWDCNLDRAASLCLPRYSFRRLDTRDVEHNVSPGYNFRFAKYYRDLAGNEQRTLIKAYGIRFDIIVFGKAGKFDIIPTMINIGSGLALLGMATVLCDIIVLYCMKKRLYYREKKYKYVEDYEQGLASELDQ
Test: Assay B: human P2X4 receptor cell line, mitochondrial photina luminescence (agonist Bz-ATP at EC50)
Assay type: cell-based
Set-up: host or cells: HEK 293 (recombinant, constitutively expressing; with mitochondrial photina in Assay B)
Conditions: HEK human P2X4 cell line, photina luminescence, agonist Bz-ATP at EC50, average; for Emax: read-out: human P2X4 Assay B avg Efficacy
Protocol: The identification of agonists and antagonists of the P2X4 receptor from humans and […] also the quantification of the activity of the compounds of the invention was performed by use of recombinant cell lines. […] The test cell lines constitutively express the mouse or human P2X4 receptors. Stimulation of the receptors with an agonist leads to a conformational change of P2X4 and influx of extracellular calcium ions through the ion channel. The cytoplasmatic calcium transient is detected via the calcium sensitive dye Fluo8 for the mouse P2×4 cell line or in case of the human P2×4 cell line a stably expressed calcium-sensitive photoprotein, mitochondrial photina, which, after reconstitution with the cofactor coelenterazine, emits light in dependence of calcium binding [Bovolenta S, Foti M, Lohmer S, Corazza S., J Biomol Screen. […] The strength of Fluo8 fluorescence signal or photina luminescence signal corresponds to the level of receptor activation. An inhibitor would decrease the signal depending on its potency and concentration.
The resulting light signal is measured immediately in the luminometer.

Row | Compound | IC50 [nM] | Emax [%]
1 | NS(=O)(=O)c1cc(NC(=O)Cc2ccccc2)cc(F)c1Oc1cccc(Cl)c1 [Example 170, N-[4-(3-Chlorophenoxy)-3-fluoro-5-sulfamoylphenyl]-2-phenylacetamide] | > 16000 | 36
2 | Cc1ccccc1CC(=O)Nc1cc(F)c(Oc2cccc(Cl)c2)c(S(N)(=O)=O)c1 [Example 171, N-[4-(3-Chlorophenoxy)-3-fluoro-5-sulfamoylphenyl]-2-(2-methylphenyl)acetamide] | 4910 | 65
3 | NS(=O)(=O)c1cc(NC(=O)Cc2cccnc2)ccc1Oc1cccc(Cl)c1 [Example 181, N-[4-(3-Chlorophenoxy)-3-sulfamoylphenyl]-2-(pyridin-3-yl)acetamide] | 2240 | 63
4 | CC(C(=O)Nc1ccc(Oc2cccc(Cl)c2)c(S(N)(=O)=O)c1)c1ccccc1 (centres unmarked) [Example 184, N-[4-(3-Chlorophenoxy)-3-sulfamoylphenyl]-2-phenylpropanamide] | – | 53
5 | NS(=O)(=O)c1cc(NC(=O)Cc2cccc(Cl)c2)ccc1Oc1cccc(Cl)c1 [Example 186, N-[4-(3-Chlorophenoxy)-3-sulfamoylphenyl]-2-(3-chlorophenyl)acetamide] | 462 | 97
6 | NS(=O)(=O)c1cc(NC(=O)Cc2ccncc2)ccc1Oc1cccc(Cl)c1 [Example 188, N-[4-(3-Chlorophenoxy)-3-sulfamoylphenyl]-2-(pyridin-4-yl)acetamide] | 2560 | 71
7 | Cc1ccc(CC(=O)Nc2ccc(Oc3cccc(Cl)c3)c(S(N)(=O)=O)c2)nc1 [Example 193, N-[4-(3-Chlorophenoxy)-3-sulfamoylphenyl]-2-(5-methylpyridin-2-yl)acetamide] | 1060 | 79
8 | C[C@@H](C(=O)Nc1ccc(Oc2cccc(Cl)c2)c(S(N)(=O)=O)c1)c1ccccc1 [Example 195, (2R)—N-[4-(3-Chlorophenoxy)-3-sulfamoylphenyl]-2-phenylpropanamide] | – | 64
9 | NS(=O)(=O)c1cc(NC(=O)Cc2ccccc2)ccc1OC1CCCCC1 [Example 199, N-[4-(Cyclohexyloxy)-3-sulfamoylphenyl]-2-phenylacetamide] | 1960 | 70
10 | COCCNC(=O)c1cccc(CC(=O)Nc2ccc(Oc3cccc(Cl)c3)c(S(N)(=O)=O)c2)c1 [Example 201, 3-(2-{[4-(3-Chlorophenoxy)-3-sulfamoylphenyl]amino}-2-oxoethyl)-N-(2-methoxyethyl)benzamide] | 3300 | 73
11 | CNC(=O)c1cccc(CC(=O)Nc2ccc(Oc3cccc(Cl)c3)c(S(N)(=O)=O)c2)c1 [Example 203, 3-(2-{[4-(3-Chlorophenoxy)-3-sulfamoylphenyl]amino}-2-oxoethyl)-N-methylbenzamide] | 1350 | 69
12 | NS(=O)(=O)c1cc(NC(=O)Cc2ccccc2)ccc1OC1CCOCC1 [Example 206, 2-Phenyl-N-[3-sulfamoyl-4-(tetrahydro-2H-pyran-4-yloxy)phenyl]acetamide] | 10800 | 88
13 | NS(=O)(=O)c1cc(NC(=O)Cc2ccc(Cl)cn2)ccc1Oc1cccc(Cl)c1 [Example 209, N-[4-(3-Chlorophenoxy)-3-sulfamoylphenyl]-2-(5-chloropyridin-2-yl)acetamide] | 742 | 64
14 | NS(=O)(=O)c1cc(NC(=O)Cc2ccccc2OCCO)ccc1Oc1cccc(Cl)c1 [Example 213, N-[4-(3-Chlorophenoxy)-3-sulfamoylphenyl]-2-[2-(2-hydroxyethoxy)phenyl]acetamide] | 818 | 61
15 | NS(=O)(=O)c1cc(NC(=O)Cc2ccccc2Cl)ccc1OC1COC1 [Example 216, 2-(2-Chlorophenyl)-N-[4-(oxetan-3-yloxy)-3-sulfamoylphenyl]acetamide] | 3350 | 45

The next lines start with the values.

Row | IC50 [nM] | Emax [%] | Compound
16 | 3240 | 63 | Cc1cccc(CC(=O)Nc2cc(F)c(Oc3cccc(Cl)c3)c(S(N)(=O)=O)c2)c1 [Example 172, N-[4-(3-Chlorophenoxy)-3-fluoro-5-sulfamoylphenyl]-2-(3-methylphenyl)acetamide]
17 | 429 | 54 | Cc1cccc(CC(=O)Nc2ccc(Oc3cccc(Cl)c3)c(S(N)(=O)=O)c2)n1 [Example 189, N-[4-(3-Chlorophenoxy)-3-sulfamoylphenyl]-2-(6-methylpyridin-2-yl)acetamide]
18 | 171 | 65 | COc1ccc(CC(=O)Nc2ccc(Oc3cccc(Cl)c3)c(S(N)(=O)=O)c2)cc1 [Example 190, N-[4-(3-Chlorophenoxy)-3-sulfamoylphenyl]-2-(4-methoxyphenyl)acetamide]
19 | – | 65 | C[C@H](C(=O)Nc1ccc(Oc2cccc(Cl)c2)c(S(N)(=O)=O)c1)c1ccccc1 [Example 194, (2S)—N-[4-(3-chlorophenoxy)-3-sulfamoylphenyl]-2-phenylpropanamide]
20 | 4120 | 68 | COCCN(C)C(=O)c1ccccc1CC(=O)Nc1ccc(Oc2cccc(Cl)c2)c(S(N)(=O)=O)c1 [Example 197, 2-(2-{[4-(3-Chlorophenoxy)-3-sulfamoylphenyl]amino}-2-oxoethyl)-N-(2-methoxyethyl)-N-methylbenzamide]
21 | 4740 | 60 | CN(C)C(=O)c1ccccc1CC(=O)Nc1ccc(Oc2cccc(Cl)c2)c(S(N)(=O)=O)c1 [Example 198, 2-(2-{[4-(3-Chlorophenoxy)-3-sulfamoylphenyl]amino}-2-oxoethyl)-N,N-dimethylbenzamide]
22 | 4040 | 60 | NS(=O)(=O)c1cc(NC(=O)Cc2ccccc2)ccc1OC1CCC1 [Example 204, N-[4-(Cyclobutyloxy)-3-sulfamoylphenyl]-2-phenylacetamide]
23 | 396 | 74 | NS(=O)(=O)c1cc(NC(=O)Cc2ccccc2Cl)ccc1OC1CCC1 [Example 205, 2-(2-Chlorophenyl)-N-[4-(cyclobutyloxy)-3-sulfamoylphenyl]acetamide]
24 | 491 | 71 | COCCOc1cccc(CC(=O)Nc2ccc(Oc3cccc(Cl)c3)c(S(N)(=O)=O)c2)c1 [Example 210, N-[4-(3-Chlorophenoxy)-3-sulfamoylphenyl]-2-[3-(2-methoxyethoxy)phenyl]acetamide]
25 | 404 | 102 | COCCOc1ccccc1CC(=O)Nc1ccc(Oc2cccc(Cl)c2)c(S(N)(=O)=O)c1 [Example 211, N-[4-(3-Chlorophenoxy)-3-sulfamoylphenyl]-2-[2-(2-methoxyethoxy)phenyl]acetamide]
26 | 406 | 85 | NS(=O)(=O)c1cc(NC(=O)Cc2cccc(OCCO)c2)ccc1Oc1cccc(Cl)c1 [Example 212, N-[4-(3-Chlorophenoxy)-3-sulfamoylphenyl]-2-[3-(2-hydroxyethoxy)phenyl]acetamide]
27 | 1510 | 68 | NS(=O)(=O)c1cc(NC(=O)Cc2ccccc2)ccc1OC1COC1 [Example 215, N-[4-(Oxetan-3-yloxy)-3-sulfamoylphenyl]-2-phenylacetamide]
28 | 4030 | 67 | NS(=O)(=O)c1cc(NC(=O)Cc2ccccc2)ccc1OC1CCCC1 [Example 217, N-[4-(Cyclopentyloxy)-3-sulfamoylphenyl]-2-phenylacetamide]
